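Test compounds were applied to cells in 96-well plates for 48 hours at 5 doses. The concentration for 50% growth inhibition is given as GI50. The concentration for full growth arrest is given as TGI.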

Experimental findings from PubChem BioAssay (NCI) are described below.

What all share (experiment): growth of human tumour cells (NCI), 48 h
Assay [1] concerns MOLT-4 leukemia.
For assay [2], the system named is HL-60(TB) leukemia.
Assay [3] deals with SNB-75 CNS.
Assay [4] has as its system RXF 393 renal.
Assay [5] relates to SK-MEL-2 melanoma.
Assay [6] deals with OVCAR-5 ovarian.
For assay [7], the system named is NCI-H460 lung.
In assay [8] the test system is EKVX NSCLC.
In assay [9] the test system is HOP-62 NSCLC.
Assay [10] has as its system HCT-15 colon.

As to `O=C1c2ccccc2-c2c1c1ccccc1c(=O)n2CCNCCNCCn1c2c(c3ccccc3c1=O)C(=O)c1ccccc1-2`, the TGI in [1] is greater than 100 µM; in assay [2], greater than 100 µM; in [3] it was 47.5 µM; in [4], 10.3 µM; in assay [5] it was greater than 48.2 µM; in assay [6] it was 34.5 µM. In addition, the TGI in [7] amounted to 7.59 µM; in [8], 27.2 µM; in assay [9], 4.5 µM; in assay [10], 1.31 µM. For the same compound, the GI50 was 98.5 µM in [2]; 7.95 µM in assay [3]; 0.114 µM in assay [4]; 19.1 µM in assay [5]; 8.91 µM in assay [6]; 0.0246 µM in assay [7]. Further, the GI50 in assay [8] is 10.6 µM; in assay [9], 0.0288 µM; in [10] it was 0.0545 µM.
In the case of `C=C(CN1CCc2ccccc2C1)c1ccc(C(=O)Nc2ccc(N)cc2)cc1`, the GI50 in assay [1] was 1.93 µM; in assay [2], 7.07 µM; in assay [3] it was 9.87 µM; in assay [4] it was 16.9 µM; in assay [5], 24.4 µM; in assay [6], 29.9 µM. Besides, the GI50 is 27.7 µM in [7], 22.4 µM in assay [8], 28.5 µM in assay [9] and 32.2 µM in [10]. In addition, the TGI was 53 µM in assay [1]; 36.7 µM in [2]; 53.6 µM in assay [3]; 91.4 µM in assay [4]; greater than 100 µM in [5]; greater than 100 µM in assay [6]. Also, the TGI in [7], in [8], in assay [9] and in [10] was greater than 100 µM in each case.
In the case of `O=C(NC(=S)Nc1ccc(Cl)cc1)c1ccccc1`, the GI50 in assay [1] was greater than 100 µM; in assay [2], greater than 100 µM; in assay [3] it was greater than 49.7 µM; in [4] it was greater than 56.2 µM; in [5], greater than 100 µM; in [6] it was greater than 100 µM. Besides, the GI50 in assay [7] is greater than 100 µM; in assay [8], greater than 100 µM; in [9] it was greater than 61.7 µM; in assay [10] it was greater than 100 µM. The TGI in [1], in assay [2], in [3], in [4], in [5] and in assay [6] was greater than 100 µM each time. In addition, the TGI in assay [7], in assay [8], in assay [9] and in assay [10] was greater than 100 µM each time.
For `O=C(Nc1ccc(Cl)cc1)c1cc2ccccc2cc1O`, the GI50 in assay [1] is 4.19 µM; in assay [2] it was 2.7 µM; in assay [3] it was 22.2 µM; in assay [4] it was 7.19 µM; in [5], 2.87 µM; in assay [6] it was 4.07 µM. The GI50 in [7] was 2.67 µM; in assay [8], 2.98 µM; in assay [9], 3.34 µM; in [10] it was 3.1 µM. The TGI in assay [1] was greater than 100 µM; in [2] it was 7.91 µM; in [3] it was greater than 100 µM; in [4], greater than 100 µM; in assay [5] it was 13.1 µM; in assay [6], greater than 100 µM. The TGI in assay [7], in [8], in assay [9] and in assay [10] was greater than 100 µM in each case.
For `CCN(CC)CCOc1ccc(/C=C2\CC3C4CC=C5C[C@@H](N6CCCC6)CC[C@]5(C)C4CC[C@]3(C)[C@H]2O)cc1OC` (some centres undefined), the GI50 in [1] was 2.2 µM; in assay [2], 13.8 µM; in [3], 14.6 µM; in assay [4], 3.79 µM; in assay [5] it was 9.64 µM; in [6] it was 24 µM. For the same compound, the GI50 in assay [7] was 14.2 µM; in assay [8] it was 12.9 µM; in assay [9] it was 5.82 µM; in assay [10], 3.45 µM. Moreover, the TGI in assay [1] was greater than 21.6 µM; in assay [2], 35.2 µM; in assay [3], greater than 69.4 µM; in assay [4], 17.8 µM; in [5], greater than 100 µM; in assay [6], greater than 72.8 µM. The TGI in [7] is 65.7 µM; in assay [8] it was greater than 77.4 µM; in assay [9], 15.3 µM; in assay [10] it was 22.4 µM.
As to `N=C(N)CCCCCCCCC(=N)N`, the GI50 was 46.4 µM in assay [1]; 29.5 µM in assay [2]; 29.1 µM in assay [3]; greater than 100 µM in assay [4]; greater than 100 µM in [5]; 26.4 µM in assay [6]. Also, the GI50 in [7] was 18.8 µM; in assay [8] it was 9.51 µM; in [9], 30.9 µM; in assay [10], 47.2 µM. Moreover, the TGI in assay [1], in [2], in assay [3], in [4], in assay [5] and in [6] was greater than 100 µM each time. In addition, the TGI in [7], in assay [8], in [9] and in [10] was greater than 100 µM in each case.
In the case of `Cc1nc2cccc(NCc3ccc(C(=O)NO)cc3)c2c(=O)n1-c1ccccc1`, the GI50 in assay [1] is 2.28 µM; in assay [2], 2.87 µM; in assay [3], 1.97 µM; in assay [4], 1.41 µM; in assay [5] it was 2.36 µM; in [6], 2.13 µM. Further, the GI50 was 2.21 µM in [7], 2.08 µM in [8], 1.65 µM in assay [9] and 1.68 µM in assay [10]. For the same compound, the TGI in assay [1] was greater than 100 µM; in assay [2], 10.2 µM; in [3] it was 5.46 µM; in assay [4], 2.79 µM; in assay [5], 5.12 µM; in assay [6], 6.75 µM. For the same compound, the TGI amounted to 10.5 µM in assay [7], 4.9 µM in assay [8], 4.47 µM in [9] and 3.41 µM in assay [10].
For `CC(=O)/C=C/c1ccc(C2CC(C)=Nc3c(ccc4c3C(=O)c3ccccc3C4=O)N2)cc1` (centres undefined), the TGI in assay [1], in [2], in assay [3], in [4], in [5] and in assay [6] was greater than 100 µM throughout. The TGI in assay [7], in assay [8], in assay [9] and in assay [10] was greater than 100 µM in each case.
